Measured values reported in the supplement of paper PMC10307832.

Legend:
Assay in all cases: relative viability (nuclei count vs DMSO), 5 days (fraction); higher = more cells survive
[1] = compound: CCCS(=O)(=O)Nc1ccc(F)c(C(=O)c2c[nH]c3ncc(-c4ccc(Cl)cc4)cc23)c1F [Vemurafenib] + C[C@@H](Oc1cc(-c2cnn(C3CCNCC3)c2)cnc1N)c1c(Cl)ccc(F)c1Cl [Crizotinib] (partner 1 µM)
Summary of the method: (§1)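 Each reported value is a median over duplicate plates. It expresses relative viability: treated-well nuclei count divided by vehicle-well nuclei count. Lung cancer cell lines in 1536-well plates were dosed by pin tool a day after seeding, alone with one drug or with a fixed anchor-drug dose plus five library-drug doses (not always all listed) in √10 steps, and nuclei were counted after 5 days.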

[2] = compound: Cc1nc(NC(=O)N2CCC[C@H]2C(N)=O)sc1-c1ccnc(C(C)(C)C(F)(F)F)c1 [Alpelisib] + CC(=O)c1c(C)c2cnc(Nc3ccc(N4CCNCC4)cn3)nc2n(C2CCCC2)c1=O [Palbociclib] (partner 0.5 µM)
Summary of the method: as §1

[3] = compound: Cc1nc(NC(=O)N2CCC[C@H]2C(N)=O)sc1-c1ccnc(C(C)(C)C(F)(F)F)c1 [Alpelisib] + N=C(N)NC(=N)NCCc1ccccc1 [Phenformin] (partner 250 µM)
Summary of the method: as §1

[4] = compound: Cc1nc(NC(=O)N2CCC[C@H]2C(N)=O)sc1-c1ccnc(C(C)(C)C(F)(F)F)c1 [Alpelisib] + Nc1ncn([C@H]2C[C@H](O)[C@@H](CO)O2)c(=O)n1 [Decitabine] (partner 2 µM)
Summary of the method: as §1

## NCI-H441
[1]; first compound 0.03162 µM
  relative viability: 0.705
[1]; first compound 0.1 µM
  relative viability: 0.684
[1]; first compound 0.3162 µM
  relative viability: 0.743
[1]; first compound 1 µM
  relative viability: 0.616
[2]; first compound 0.04 µM
  relative viability: 0.225
[2]; first compound 0.1265 µM
  relative viability: 0.166
[2]; first compound 0.4 µM
  relative viability: 0.182
[2]; first compound 1.265 µM
  relative viability: 0.14
[2]; first compound 4 µM
  relative viability: 0.111
[3]; first compound 0.04 µM
  relative viability: 0.955
[3]; first compound 0.1265 µM
  relative viability: 0.749
[3]; first compound 0.4 µM
  relative viability: 0.832
[3]; first compound 1.265 µM
  relative viability: 0.469
[3]; first compound 4 µM
  relative viability: 0.45
[4]; first compound 0.04 µM
  relative viability: 0.244
[4]; first compound 0.1265 µM
  relative viability: 0.215
[4]; first compound 0.4 µM
  relative viability: 0.271
[4]; first compound 1.265 µM
  relative viability: 0.22
[4]; first compound 4 µM
  relative viability: 0.224

## NCI-H1793
[2]; first compound 0.04 µM
  relative viability: 0.367
[2]; first compound 0.1265 µM
  relative viability: 0.287
[2]; first compound 0.4 µM
  relative viability: 0.332
[2]; first compound 1.265 µM
  relative viability: 0.324
[2]; first compound 4 µM
  relative viability: 0.245
[3]; first compound 0.04 µM
  relative viability: 0.365
[3]; first compound 0.1265 µM
  relative viability: 0.322
[3]; first compound 0.4 µM
  relative viability: 0.365
[3]; first compound 1.265 µM
  relative viability: 0.301
[3]; first compound 4 µM
  relative viability: 0.238
[4]; first compound 0.04 µM
  relative viability: 0.539
[4]; first compound 0.1265 µM
  relative viability: 0.466
[4]; first compound 0.4 µM
  relative viability: 0.449
[4]; first compound 1.265 µM
  relative viability: 0.388
[4]; first compound 4 µM
  relative viability: 0.275

## 201T
[1]; first compound 0.03162 µM
  relative viability: 0.997
[1]; first compound 0.1 µM
  relative viability: 0.993
[1]; first compound 0.3162 µM
  relative viability: 1.09
[1]; first compound 1 µM
  relative viability: 1.02
[2]; first compound 0.04 µM
  relative viability: 0.374
[2]; first compound 0.1265 µM
  relative viability: 0.335
[2]; first compound 0.4 µM
  relative viability: 0.357
[2]; first compound 1.265 µM
  relative viability: 0.315
[2]; first compound 4 µM
  relative viability: 0.29
[3]; first compound 0.04 µM
  relative viability: 0.437
[3]; first compound 0.1265 µM
  relative viability: 0.485
[3]; first compound 0.4 µM
  relative viability: 0.428
[3]; first compound 1.265 µM
  relative viability: 0.348
[3]; first compound 4 µM
  relative viability: 0.349
[4]; first compound 0.04 µM
  relative viability: 0.85
[4]; first compound 0.1265 µM
  relative viability: 0.78
[4]; first compound 0.4 µM
  relative viability: 0.88
[4]; first compound 1.265 µM
  relative viability: 0.772
[4]; first compound 4 µM
  relative viability: 0.628

## NCI-H460
[1]; first compound 0.03162 µM
  relative viability: 0.808
[1]; first compound 0.1 µM
  relative viability: 0.809
[1]; first compound 0.3162 µM
  relative viability: 0.692
[1]; first compound 1 µM
  relative viability: 0.942
[2]; first compound 0.04 µM
  relative viability: 0.338
[2]; first compound 0.1265 µM
  relative viability: 0.155
[2]; first compound 0.4 µM
  relative viability: 0.166
[2]; first compound 1.265 µM
  relative viability: 0.0802
[2]; first compound 4 µM
  relative viability: 0.114
[3]; first compound 0.04 µM
  relative viability: 0.484
[3]; first compound 0.1265 µM
  relative viability: 0.526
[3]; first compound 0.4 µM
  relative viability: 0.554
[3]; first compound 1.265 µM
  relative viability: 0.447
[3]; first compound 4 µM
  relative viability: 0.142
[4]; first compound 0.04 µM
  relative viability: 0.496
[4]; first compound 0.1265 µM
  relative viability: 0.571
[4]; first compound 0.4 µM
  relative viability: 0.436
[4]; first compound 1.265 µM
  relative viability: 0.442
[4]; first compound 4 µM
  relative viability: 0.291

## NCI-H1666
[1]; first compound 0.03162 µM
  relative viability: 1.02
[1]; first compound 0.3162 µM
  relative viability: 1.24
[1]; first compound 1 µM
  relative viability: 1.05
[2]; first compound 0.04 µM
  relative viability: 0.681
[2]; first compound 0.1265 µM
  relative viability: 0.606
[2]; first compound 0.4 µM
  relative viability: 0.693
[2]; first compound 1.265 µM
  relative viability: 0.571
[2]; first compound 4 µM
  relative viability: 0.493
[3]; first compound 0.04 µM
  relative viability: 0.557
[3]; first compound 0.1265 µM
  relative viability: 0.602
[3]; first compound 0.4 µM
  relative viability: 0.576
[3]; first compound 1.265 µM
  relative viability: 0.591
[3]; first compound 4 µM
  relative viability: 0.564
[4]; first compound 0.04 µM
  relative viability: 0.686
[4]; first compound 0.1265 µM
  relative viability: 0.708
[4]; first compound 0.4 µM
  relative viability: 0.781
[4]; first compound 1.265 µM
  relative viability: 0.694
[4]; first compound 4 µM
  relative viability: 0.612

## HOP-62
[1]; first compound 0.03162 µM
  relative viability: 0.905
[1]; first compound 0.1 µM
  relative viability: 0.987
[1]; first compound 0.3162 µM
  relative viability: 0.94
[1]; first compound 1 µM
  relative viability: 0.862
[2]; first compound 0.04 µM
  relative viability: 0.43
[2]; first compound 0.1265 µM
  relative viability: 0.425
[2]; first compound 0.4 µM
  relative viability: 0.508
[2]; first compound 1.265 µM
  relative viability: 0.309
[2]; first compound 4 µM
  relative viability: 0.417
[3]; first compound 0.04 µM
  relative viability: 0.642
[3]; first compound 0.1265 µM
  relative viability: 0.611
[3]; first compound 0.4 µM
  relative viability: 0.761
[3]; first compound 1.265 µM
  relative viability: 0.561
[3]; first compound 4 µM
  relative viability: 0.633
[4]; first compound 0.04 µM
  relative viability: 0.259
[4]; first compound 0.1265 µM
  relative viability: 0.22
[4]; first compound 0.4 µM
  relative viability: 0.216
[4]; first compound 1.265 µM
  relative viability: 0.234
[4]; first compound 4 µM
  relative viability: 0.283

## SW 1573
[1]; first compound 0.03162 µM
  relative viability: 0.628
[1]; first compound 0.1 µM
  relative viability: 0.941
[1]; first compound 0.3162 µM
  relative viability: 1.01
[1]; first compound 1 µM
  relative viability: 0.722
[2]; first compound 0.04 µM
  relative viability: 0.409
[2]; first compound 0.1265 µM
  relative viability: 0.401
[2]; first compound 0.4 µM
  relative viability: 0.366
[2]; first compound 1.265 µM
  relative viability: 0.201
[2]; first compound 4 µM
  relative viability: 0.284
[3]; first compound 0.04 µM
  relative viability: 0.306
[3]; first compound 0.1265 µM
  relative viability: 0.335
[3]; first compound 0.4 µM
  relative viability: 0.272
[3]; first compound 1.265 µM
  relative viability: 0.217
[3]; first compound 4 µM
  relative viability: 0.257
[4]; first compound 0.04 µM
  relative viability: 0.489
[4]; first compound 0.1265 µM
  relative viability: 0.453
[4]; first compound 0.4 µM
  relative viability: 0.626
[4]; first compound 1.265 µM
  relative viability: 0.365
[4]; first compound 4 µM
  relative viability: 0.359

## NCI-H2085
[1]; first compound 0.03162 µM
  relative viability: 0.875
[1]; first compound 0.1 µM
  relative viability: 0.841
[1]; first compound 0.3162 µM
  relative viability: 0.822
[1]; first compound 1 µM
  relative viability: 0.783
[2]; first compound 0.04 µM
  relative viability: 0.464
[2]; first compound 0.1265 µM
  relative viability: 0.484
[2]; first compound 0.4 µM
  relative viability: 0.455
[2]; first compound 1.265 µM
  relative viability: 0.447
[2]; first compound 4 µM
  relative viability: 0.446
[3]; first compound 0.04 µM
  relative viability: 0.73
[3]; first compound 0.1265 µM
  relative viability: 0.631
[3]; first compound 0.4 µM
  relative viability: 0.782
[3]; first compound 1.265 µM
  relative viability: 0.698
[3]; first compound 4 µM
  relative viability: 0.621
[4]; first compound 0.04 µM
  relative viability: 0.601
[4]; first compound 0.1265 µM
  relative viability: 0.524
[4]; first compound 0.4 µM
  relative viability: 0.538
[4]; first compound 1.265 µM
  relative viability: 0.574
[4]; first compound 4 µM
  relative viability: 0.467

## ABC-1
[1]; first compound 0.03162 µM
  relative viability: 1.01
[1]; first compound 0.1 µM
  relative viability: 1.21
[1]; first compound 0.3162 µM
  relative viability: 1.2
[1]; first compound 1 µM
  relative viability: 0.997
[2]; first compound 0.04 µM
  relative viability: 0.653
[2]; first compound 0.1265 µM
  relative viability: 0.611
[2]; first compound 0.4 µM
  relative viability: 0.732
[2]; first compound 1.265 µM
  relative viability: 0.385
[2]; first compound 4 µM
  relative viability: 0.454
[3]; first compound 0.04 µM
  relative viability: 0.256
[3]; first compound 0.1265 µM
  relative viability: 0.252
[3]; first compound 0.4 µM
  relative viability: 0.211
[3]; first compound 1.265 µM
  relative viability: 0.233
[3]; first compound 4 µM
  relative viability: 0.222
[4]; first compound 0.04 µM
  relative viability: 1.15
[4]; first compound 0.1265 µM
  relative viability: 1
[4]; first compound 0.4 µM
  relative viability: 1.21
[4]; first compound 1.265 µM
  relative viability: 0.612
[4]; first compound 4 µM
  relative viability: 1.12
